Assay results taken from ChEMBL document CHEMBL1147308, “Novel secoiridoid lactones from Jasminum multiflorum” (1989).
The source made the active and inactive calls. No cut-off for these calls is given here.

Experiments:
Heart [1] = test: Cardiotropic activity in perfused guinea pig heart assessed as minimum effective concentration; assay type: functional, Cavia porcellus
Heart [2] = test: Cardiotropic activity in perfused guinea pig heart assessed as positive ionotropy; assay type: functional, tissue-based; conditions: Cavia porcellus
Heart [3] = test: Coronary dilatory activity in perfused guinea pig heart assessed as minimum effective concentration; assay type: functional, Cavia porcellus
Heart [4] = test: Cardiotropic activity in perfused guinea pig heart assessed as positive chronotropy; assay type: functional, tissue-based; conditions: Cavia porcellus
Heart [5] = test: Cardiotropic activity in perfused guinea pig heart assessed as negative ionotropy; assay type: functional, tissue-based; conditions: Cavia porcellus
Heart [6] = test: Cardiotropic activity in perfused guinea pig heart assessed as negative chronotropy; assay type: functional, tissue-based; conditions: Cavia porcellus

With `CC(C)NCC(O)c1ccc(O)c(O)c1` (configuration not stated) [ISOPROTERENOL] the MEC (Heart [1]) was 4.7 ×10⁻⁸ M, the Activity (Heart [2]) was “Active” and the MEC (Heart [3]) was 4.7 ×10⁻⁷ M. The Activity (Heart [4]) was “Active”.

With `COC(=O)C1=CO[C@@H](O)[C@H]2[C@@H]1CC(=O)OC[C@H]2OCCc1ccc(O)c(O)c1` [JASMOLACTONE A] the MEC (Heart [1]) was 2.5 ×10⁻⁵ M, the Activity (Heart [5]) was “Active” and the MEC (Heart [3]) was 1.3 ×10⁻⁵ M. For the same compound, the Activity (Heart [6]) was “inactive”.

With `O=C1C[C@@H]2C(C(=O)OCCc3ccc(O)c(O)c3)=CO[C@@H](O)[C@@H]2[C@H](OCCc2ccc(O)c(O)c2)CO1` [JASMOLACTONE B] the MEC (Heart [1]) was 9.7 ×10⁻⁶ M, the Activity (Heart [5]) was “Active” and the MEC (Heart [3]) was 4.8 ×10⁻⁶ M. The Activity (Heart [6]) was “inactive”.
